# Data as given in patent publication US20240246908A1 (ORION CORPORATION, priority 2021, published 2024).
# Tested on: YAP-TEAD
# Experiment: TEAD inhibition, Hippo Pathway TEAD Reporter MCF-7 luciferase assay
# Format: cell-based
# Settings: Homo sapiens, MCF7, 24 h, Hippo Pathway TEAD Reporter MCF-7 cells, luciferase activity after 24 h; read-out: IC50 of the test compounds on YAP-TEAD inhibition (Group)
# Procedure, shortened: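 IC50 derived from ONE-Glo luciferase luminescence after 24 h compound exposure (11 concentrations in quadruplicate, 0.1% DMSO control). Reporter: MCF-7 line expressing firefly luciferase under TEAD elements, constitutively activated by nuclear YAP1.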
row,Structure (SMILES),IC50 [nM]
1,"COc1ccc(COc2ccc(F)c(F)c2)cc1NC(=O)C1COC(=O)N1C (stereo not drawn) [Compound 89, N-(5-((3,4-Difluorophenoxy)methyl)-2-methoxyphenyl)-3-methyl-2-oxo-oxazolidine-4-carboxamide]",50 to 300
2,"COc1ccc(COc2cccc(F)c2)cc1NC(=O)C1COC(=O)N1C (stereo not drawn) [Compound 90, N-(5-((3-Fluorophenoxy)methyl)-2-methoxyphenyl)-3-methyl-2-oxo-oxazolidine-4-carboxamide]",50 to 300
3,"COc1ccc(Oc2ccc(F)c(F)c2)cc1NC(=O)[C@@H]1CCC(=O)N1C [Compound 94, (S)—N-(5-(3,4-Difluorophenoxy)-2-methoxyphenyl)-1-methyl-5-oxopyrrolidine-2-carboxamide]",50 to 300
4,"COc1ccc(COc2ccc(F)c(F)c2)cc1NC(=O)C1CCC(=O)N1C (stereo not drawn) [Compound 95, N-(5-((3,4-Difluorophenoxy)methyl)-2-methoxyphenyl)-1-methyl-5-oxo-pyrrolidine-2-carboxamide]",50 to 300
5,"COc1ccc(OC2CC3CCC2C3)cc1NC(=O)C1CCC(=O)N1C (stereo not drawn) [Compound 96, N-(5-(Bicyclo[2.2.1]heptan-2-yloxy)-2-methoxyphenyl)-1-methyl-5-oxo-pyrrolidine-2-carboxamide]",50 to 300
6,"CN1C(=O)CC[C@H]1C(=O)Nc1cc(Oc2ccc(F)c(F)c2)cc2c1OCCO2 [Compound 98, (S)—N-(7-(3,4-Difluorophenoxy)-2,3-dihydrobenzo[b][1,4]dioxin-5-yl)-1-methyl-5-oxopyrrolidine-2-carboxamide]",50 to 300
7,"COc1ccc(OC2CCC(F)(F)CC2)cc1NC(=O)C1COC(=O)N1C (stereo not drawn) [Compound 104, N-(5-((4,4-Difluorocyclohexyl)oxy)-2-methoxyphenyl)-3-methyl-2-oxo-oxazolidine-4-carboxamide]",50 to 300
8,"CN1C(=O)CCC1C(=O)Nc1cc(Oc2cccc(C(F)(F)F)c2)cc2c1NC(=O)CO2 (stereo not drawn) [Compound 106, 1-Methyl-5-oxo-N-(3-oxo-7-(3-(trifluoromethyl)phenoxy)-3,4-dihydro-2H-benzo[b][1,4]oxazin-5-yl)pyrrolidine-2-carboxamide]",301 to 2000
9,"CN1C(=O)CC[C@@H]1C(=O)Nc1cc(O[C@H]2CC[C@@H](C(F)(F)F)CC2)cc2c1OCC2 [Compound 108, (R)-1-Methyl-5-oxo-N-(5-(((cis)-4-(trifluoromethyl)cyclohexyl)oxy)-2,3-dihydrobenzofuran-7-yl)pyrrolidine-2-carboxamide]",50 to 300
10,"COc1ccc(Oc2ccc(C(F)(F)F)cc2)cc1NC(=O)C1CCC(=O)N1C1CC1 (stereo not drawn) [Compound 110, 1-Cyclopropyl-N-(2-methoxy-5-(4-(trifluoromethyl)phenoxy)phenyl)-5-oxo-pyrrolidine-2-carboxamide]",< 50
11,"COc1ccc(Oc2ccc(F)c(F)c2)cc1NC(=O)C1CCC(=O)N1C1CC1 (stereo not drawn) [Compound 111, 1-Cyclopropyl-N-(5-(3,4-difluorophenoxy)-2-methoxyphenyl)-5-oxopyrrolidine-2-carboxamide]",50 to 300
12,"COc1ccc(Oc2ccc(OC(F)(F)F)cn2)cc1NC(=O)C1COC(=O)N1C (stereo not drawn) [Compound 112, N-(2-Methoxy-5-((5-(trifluoromethoxy)pyridin-2-yl)oxy)phenyl)-3-methyl-2-oxooxazolidine-4-carboxamide]",50 to 300
13,"CN1C(=O)CCC1C(=O)Nc1cc(COC2CCC(F)(F)CC2)cc2c1OCCO2 (stereo not drawn) [Compound 113, N-(7-(((4,4-Difluorocyclohexyl)oxy)methyl)-2,3-dihydrobenzo[b][1,4]dioxin-5-yl)-1-methyl-5-oxopyrrolidine-2-carboxamide]",301 to 2000
14,"O=C(Nc1cc(Oc2ccc(C(F)(F)F)cc2)cc2c1OCCO2)C1CCC(=O)N1C1CC1 (stereo not drawn) [Compound 114, 1-Cyclopropyl-5-oxo-N-(7-(4-(trifluoromethyl)phenoxy)-2,3-dihydrobenzo[b][1,4]dioxin-5-yl)pyrrolidine-2-carboxamide]",< 50
15,"COc1ccc(Oc2ccc(OC(F)(F)F)cn2)cc1NC(=O)C1CCC(=O)N1C (stereo not drawn) [Compound 115, N-(2-Methoxy-5-((5-(trifluoromethoxy)pyridin-2-yl)oxy)phenyl)-1-methyl-5-oxopyrrolidine-2-carboxamide]",50 to 300
16,"COc1ccc(Oc2ccc(C(F)(F)F)cc2)cc1NC(=O)C1CCS(=O)(=O)C1 (stereo not drawn) [Compound 116, N-(2-Methoxy-5-(4-(trifluoromethyl)phenoxy)phenyl)tetrahydrothiophene-3-carboxamide 1,1-dioxide]",50 to 300
17,"COc1ccc(Oc2ccc(C(F)(F)F)cc2)cc1NC(=O)C1CNC(=O)N1C (stereo not drawn) [Compound 117, N-(2-Methoxy-5-(4-(trifluoromethyl)phenoxy)phenyl)-3-methyl-2-oxo-imidazolidine-4-carboxamide]",< 50
18,"COc1ccc(Oc2ccc(C(F)(F)F)cn2)cc1NC(=O)C1CNC(=O)N1C (stereo not drawn) [Compound 118, N-(2-Methoxy-5-((5-(trifluoromethyl)pyridin-2-yl)oxy)phenyl)-3-methyl-2-oxoimidazolidine-4-carboxamide]",< 50
19,"COc1ccc(Oc2ccc(C(F)(F)F)cc2)cc1NC(=O)[C@H]1CCC(=O)NC1 [Compound 119, (S)—N-(2-Methoxy-5-(4-(trifluoromethyl)phenoxy)phenyl)-6-oxopiperidine-3-carboxamide]",< 50
20,"COc1ccc(Oc2ccc(C(F)(F)F)cc2)cc1NC(=O)[C@@H]1CCC(=O)NC1 [Compound 120, (R)—N-(2-Methoxy-5-(4-(trifluoromethyl)phenoxy)phenyl)-6-oxopiperidine-3-carboxamide]",301 to 2000
21,"COc1ccc(Oc2ccc(C(F)(F)F)cc2)cc1NC(=O)C1(C)CCC(=O)NC1 (stereo not drawn) [Compound 121, N-(2-Methoxy-5-(4-(trifluoromethyl)phenoxy)phenyl)-3-methyl-6-oxo-piperidine-3-carboxamide]",301 to 2000
22,"COc1ccc(Oc2ccc(C(F)(F)F)cc2)cc1NC(=O)c1ccc(=O)[nH]c1 [Compound 122, N-(2-Methoxy-5-(4-(trifluoromethyl)phenoxy)phenyl)-6-oxo-1,6-dihydro-pyridine-3-carboxamide]",301 to 2000
23,"COc1ccc(Oc2ccc(C(F)(F)F)cn2)cc1NC(=O)C1(C)CNC(=O)N1C (stereo not drawn) [Compound 123, N-(2-Methoxy-5-((5-(trifluoromethyl)pyridin-2-yl)oxy)phenyl)-3,4-dimethyl-2-oxoimidazolidine-4-carboxamide]",301 to 2000
24,"COc1ccc(Oc2ccc(C(F)(F)F)cn2)cc1NC(=O)[C@H]1CNC(=O)N1C [Compound 124, (R)—N-(2-Methoxy-5-((5-(trifluoromethyl)pyridin-2-yl)oxy)phenyl)-3-methyl-2-oxoimidazolidine-4-carboxamide]",301 to 2000

# Further lines, results first:
row,IC50 [nM],Structure (SMILES)
1,< 50,"COc1ccc(Oc2ccc(C(F)(F)F)cc2)cc1NC(=O)C1CCC(=S)N1C (stereo not drawn) [Compound 91, N-(2-Methoxy-5-(4-(trifluoromethyl)phenoxy)phenyl)-1-methyl-5-thioxo-pyrrolidine-2-carboxamide]"
2,< 50,"COc1ccc(Oc2ccc(C(F)(F)F)cc2)cc1NC(=O)C1CCC(=S)N1 (stereo not drawn) [Compound 92, N-(2-Methoxy-5-(4-(trifluoromethyl)phenoxy)phenyl)-5-thioxopyrrolidine-2-carboxamide]"
3,< 50,"COc1ccc(Oc2ccc(F)c(F)c2)cc1NC(=O)[C@H]1CCC(=O)N1C [Compound 93, (R)—N-(5-(3,4-Difluorophenoxy)-2-methoxyphenyl)-1-methyl-5-oxopyrrolidine-2-carboxamide]"
4,< 50,"CN1C(=O)CC[C@@H]1C(=O)Nc1cc(Oc2ccc(F)c(F)c2)cc2c1OCCO2 [Compound 97, (R)—N-(7-(3,4-Difluorophenoxy)-2,3-dihydrobenzo[b][1,4]dioxin-5-yl)-1-methyl-5-oxopyrrolidine-2-carboxamide]"
5,< 50,"CN1C(=O)CC[C@@H]1C(=O)Nc1cc(Oc2ccc(C(F)(F)F)cc2)cc2c1OCC2 [Compound 99, (R)-1-Methyl-5-oxo-N-(5-(4-(trifluoromethyl)phenoxy)-2,3-dihydrobenzofuran-7-yl)pyrrolidine-2-carboxamide]"
6,< 50,"CN1C(=O)CC[C@H]1C(=O)Nc1cc(Oc2ccc(F)c(F)c2)cc2c1OCC2 [Compound 100, (S)—N-(5-(3,4-Difluorophenoxy)-2,3-dihydrobenzofuran-7-yl)-1-methyl-5-oxopyrrolidine-2-carboxamide]"
7,< 50,"COc1ccc(Oc2ccc(C(F)(F)F)cc2)cc1NC(=O)[C@H]1COC(=O)N1C [Compound 101, (R)—N-(2-Methoxy-5-(4-(trifluoromethyl)phenoxy)phenyl)-3-methyl-2-oxooxazolidine-4-carboxamide]"
8,< 50,"COc1ccc(Oc2ccc(C(F)(F)F)cc2)cc1NC(=O)[C@@H]1COC(=O)N1C [Compound 102, (S)—N-(2-Methoxy-5-(4-(trifluoromethyl)phenoxy)phenyl)-3-methyl-2-oxooxazolidine-4-carboxamide]"
9,< 50,"COc1ccc(O[C@H]2CC[C@H](C(F)(F)F)CC2)cc1NC(=O)[C@H]1CCC(=O)N1C [Compound 103, (R)—N-(2-Methoxy-5-(((trans)-4-(trifluoromethyl)cyclohexyl)oxy)phenyl)-1-methyl-5-oxopyrrolidine-2-carboxamide]"
10,< 50,"COc1ccc(O[C@H]2CC[C@H](C(F)(F)F)CC2)cc1NC(=O)[C@@H]1CCC(=O)N1C [Compound 105, (S)—N-(2-Methoxy-5-(((trans)-4-(trifluoromethyl)cyclohexyl)oxy)phenyl)-1-methyl-5-oxopyrrolidine-2-carboxamide]"
11,< 50,"CN1C(=O)CC[C@H]1C(=O)Nc1cc(O[C@H]2CC[C@@H](C(F)(F)F)CC2)cc2c1OCC2 [Compound 107, (S)-1-Methyl-5-oxo-N-(5-(((cis)-4-(trifluoromethyl)cyclohexyl)oxy)-2,3-dihydrobenzofuran-7-yl)pyrrolidine-2-carboxamide]"
12,< 50,"O=C(Nc1cc(Oc2ccc(C(F)(F)F)cc2)cc2c1OCC2)C1CCC(=O)N1C1CC1 (stereo not drawn) [Compound 109, 1-Cyclopropyl-5-oxo-N-(5-(4-(trifluoromethyl)phenoxy)-2,3-dihydro-benzofuran-7-yl)pyrrolidine-2-carboxamide]"
